# How the values were obtained:
# Type in all cases: cell-based
# CHO cells [1] = assay: Test of translocation of fluorescence-labeled peptides into CHO cells (FACS and confocal microscopic analysis)
# Jurkat cells = assay: Confocal microscopic analysis of intracellular translocation of synthetic peptides in Jurkat cells
# Description: (§1) Three kinds of cells were used for incorporating the peptides: CHO cells (ATCC NO. CCL-61), HeLa cells, and Jurkat cells. 10^4 CHO cells and HeLa cells and 10^5 Jurkat cells were separately inoculated to a 96-well plate, and cultured for 2 or 3 days. Subsequently, when the cells became confluent, each peptide solution was added to each type of cell, and the cells were incubated for 1 hour. After each type of cell was washed with PBS three times, 100 μL of 0.25% trypsin-1 mM EDTA solution was added, and trypsinization was performed at room temperature for 5 minutes. After 400 μL of PBS (10% FCS) was added to neutralize the trypsin, the cells were washed with 1 mL of HBSS (Hanks' Balanced Salt Solution/produced by Invitrogen) three times. After the washing, the cells were suspended in 50 μL of HBSS and analyzed using a confocal microscope. Measurements and analysis were performed using a confocal differential interference laser microscope system (Bio-Rad, Radience2100/Green He-Ne, 488 nm, microscope: Nikon, ECLIPSE E600).
# In Jurkat cells as well, intracellular translocation experiments of synthetic peptides of modified PTD sequences were performed by confocal microscopic analysis.
# CHO cells [2] = assay: Test of translocation of fluorescence-labeled peptides into CHO cells (FACS and confocal microscopic analysis); settings: FACS; 6.25 μM
# HeLa cells = assay: Confocal microscopic analysis of intracellular translocation of synthetic peptides in HeLa cells; settings: confocal microscopic analysis
# Description: as §1
# In HeLa cells as with CHO cells, intracellular translocation experiments of synthetic peptides of modified PTD sequences were performed by confocal microscopic analysis.
substance,measurement,setting,value
KSH1-1: KSH1 with the lysine of the lysine/arginine cluster substituted with arginine (RLWMRWYSPTTRRYG; Designed peptide to act as PTD(Protein Transduction Domain)),intracellular translocation compared with KSH1 (in words),"CHO cells [1]; 50 μM, 25 μM, 12.5 μM and 6.5 μM",clearly accentuated intracellular translocation
same,intracellular translocation compared with KSH1,"CHO cells [1]; FACS, 12.5 μM",about 8 times
same,intracellular translocation compared with KSH1,"CHO cells [1]; FACS, 25 μM",about 2 times
same,decrease of translocation efficiency compared with KSH1,"CHO cells [1]; FACS, 50 μM",about 20%
same,intracellular translocation in Jurkat cells as compared to that of SEQ ID NO:37,Jurkat cells,better intracellular translocation
same,intracellular translocation compared with KSH1,CHO cells [2],about 2 times
same,intracellular translocation in HeLa cells (modified peptides with better translocation),HeLa cells,better intracellular translocation
